Assay results published in ChEMBL document CHEMBL3046349, “Novel Mechanisms of Drug Action: Functional Selectivity at D2 Dopamine Receptors” (Med Chem Res, 2004).

Species on record: Rattus norvegicus
Test: Selectivity ratio of K0.5 for Rattus norvegicus Sprague-Dawley (rat) striatum dopamine D2 receptor to K0.5 for Sprague-Dawley Rattus norvegicus (rat) striatum dopamine D1 receptor
Assay type: tissue-based

For Oc1cc2c(cc1O)[C@H]1c3ccccc3CN[C@@H]1CC2 (relative stereo), the Ratio was 10.
